These results are taken from patent publication EP4671245A1, “HETEROAROMATIC RING COMPOUND SERVING AS CDK7 KINASE INHIBITOR, PREPARATION THEREOF, AND USE THEREOF” (Jiangsu Chia Tai Fenghai Pharmaceutical Co., Ltd., priority 2023, dated 2024).

Structures are written as SMILES. Like-named read-outs stand apart in the source and are kept apart here.

One series deals with MDA-MB-468. The experiment in a line: Anti-proliferative activity on tumor cells (Cell Titer-Glo), MDA-MB-468. The format is cell-based. As to conditions: MDA-MB-468, 7 days, 100% air. On the procedure: (§1) Tumor cell lines including HCT-116, MDA-MB-468, Jurkat, HCC70, and MDA-MB-436 were cultured in their respective growth media. Cells were seeded into 384-well plates at densities of 600, 300, 800, 800, and 1000 cells/well (in 18 µL/well), respectively, and incubated overnight at 37°C under 5% CO2 (MDA-MB-468 cells were incubated overnight at 37°C under 100% air). Test sample stock solutions were prepared in DMSO at 10 mM and serially diluted 1:3 across 10 concentrations in 1% DMSO to prepare 10X intermediate dilution plates. Then, 2 µL/well of the 1oX intermediate dilution was added to the cell plates to achieve the final assay concentrations: 10000, 3333, 1111, 370, 123, 41, 14, 4.6, and 1.5 nM. HCT-116, Jurkat, and HCC70 cell plates were incubated for 3, 7, and 7 days at 37°C with 5% CO2, respectively (MDA-MB-468 cell plates were incubated for 7 days at 37°C with 100% air). After treatment, Cell Titer-Glo reagent was removed from -20°C storage and equilibrated to room temperature. Then, 20 µL/well of Cell Titer-Glo reagent was added to each well and incubated for 10 minutes. After the 10-minute incubation, luminescence was measured using a microplate reader. Data were analyzed using Excel and the IC50 values were calculated using GraphPad Prism 7.0 software.

A further series has as its system Jurkat. Description: Anti-proliferative activity on tumor cells (Cell Titer-Glo), Jurkat. The format is cell-based. As to conditions: 7 days. On the procedure:
as §1
On the technique in general: ATP-based viability assays read luminescence as a measure of living cells.

A further series concerns HCT-116. The experiment in a line: Anti-proliferative activity on tumor cells (Cell Titer-Glo), HCT-116. It counts as cell-based. The following applies: HCT-116, 3 days. As to the method:
as §1

A further series relates to HCC70. Description: Anti-proliferative activity on tumor cells (Cell Titer-Glo), HCC70. It counts as cell-based. As to conditions: HCC70, 7 days. As to the method:
as §1

The next series deals with CDK7/CycH/MAT1 (Homo sapiens, UniProt P50613). The experiment in a line: Inhibition of CDK7/CycH/MAT1 kinase activity (ADP-Glo). As to conditions: IC50, ATP 30 µM, substrate 0.1 µM, 60 minutes at 25°C. The format is biochemical. As to the method: The CDK7/CycH/MAT1 protein was thawed on ice, and the remaining reagents were equilibrated to room temperature. The CDK7/CycH/MAT1 protein and ATP/substrate were diluted to the corresponding concentrations using enzyme reaction buffer (50 mM Hepes, 10 mM MgCl2, 0.01% Brij35, 1 mM EGTA, 2 mM DTT). The test compounds were added to a 384-well white low-volume enzyme assay plate at 20 nL per well, followed by the addition of the prepared CDK7/CycH/MAT1 protein (2 µL/well), mixed well, and incubated at 25°C for 10 minutes. The reaction was initiated by adding ATP/substrate and allowed to proceed at 25°C for 60 minutes. The final concentrations of each component in the enzyme reaction system were as follows: CDK7/CycH/MAT1 protein, 3.5 ng/µL; ATP, 30 µM; substrate, 0.1 µM. The concentrations of the test compounds ranged from high to low as follows: 5000, 1667, 556, 185, 62, 21, 7, 2, 1, and 0.3 nM. After completion of the enzymatic reaction, 4 µL of ADP-Glo Reagent was added to each well and incubated at 25°C for 40 minutes. Subsequently, 8 µL of Kinase Detection Reagent was added to each well and incubated at25°C for another 40 minutes. Chemiluminescence signals were recorded using a microplate reader, and the data were used to generate dose-response curves and calculate IC50 values.
Sequence of CDK7/CycH/MAT1 (P50613 whole entry, species assumed): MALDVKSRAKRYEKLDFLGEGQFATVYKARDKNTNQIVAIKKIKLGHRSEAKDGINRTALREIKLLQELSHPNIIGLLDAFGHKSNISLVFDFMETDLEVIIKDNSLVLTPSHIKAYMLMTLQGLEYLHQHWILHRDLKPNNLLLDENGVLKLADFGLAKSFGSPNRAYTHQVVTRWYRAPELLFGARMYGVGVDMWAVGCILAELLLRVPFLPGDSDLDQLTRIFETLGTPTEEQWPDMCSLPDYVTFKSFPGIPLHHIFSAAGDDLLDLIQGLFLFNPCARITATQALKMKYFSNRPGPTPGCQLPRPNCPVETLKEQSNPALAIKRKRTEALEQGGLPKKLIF
Sequence of CDK7/CycH/MAT1 (P51946 whole entry partner, species assumed): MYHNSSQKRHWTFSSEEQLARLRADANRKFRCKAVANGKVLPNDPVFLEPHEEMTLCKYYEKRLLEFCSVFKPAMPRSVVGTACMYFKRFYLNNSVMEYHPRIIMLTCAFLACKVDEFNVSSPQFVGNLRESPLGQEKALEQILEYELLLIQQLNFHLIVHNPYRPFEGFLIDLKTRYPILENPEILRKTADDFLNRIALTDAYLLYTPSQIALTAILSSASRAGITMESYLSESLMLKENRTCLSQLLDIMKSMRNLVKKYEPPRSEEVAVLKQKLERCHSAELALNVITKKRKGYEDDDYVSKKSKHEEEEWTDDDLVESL
Sequence of CDK7/CycH/MAT1 (P51948 whole entry partner, species assumed): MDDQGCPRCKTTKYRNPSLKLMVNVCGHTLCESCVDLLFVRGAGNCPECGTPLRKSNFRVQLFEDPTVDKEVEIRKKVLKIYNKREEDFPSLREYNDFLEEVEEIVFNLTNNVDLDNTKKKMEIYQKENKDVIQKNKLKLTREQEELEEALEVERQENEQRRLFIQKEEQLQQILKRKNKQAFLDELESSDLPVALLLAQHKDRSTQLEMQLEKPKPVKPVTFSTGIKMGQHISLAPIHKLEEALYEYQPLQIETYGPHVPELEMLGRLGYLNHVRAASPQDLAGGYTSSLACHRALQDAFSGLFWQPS

Series [1] is described as follows: Pharmacokinetic study in ICR mice (oral gavage and intravenous, plasma LC-MS/MS). The following applies: for Vd / AUC(0-t) / Cmax / MRT last / clearance / half-life / AUC(0-inf) / concentration at 8 h / Tmax / bioavailability: mouse, plasma; for Vd: iv, 10 mg/kg; for AUC(0-inf): read-out: AUCINF_obs; for concentration at 8 h: read-out: Clast; for bioavailability: read-out: Bioavailability (F). The format is in vivo. On the procedure: Each group consisted of 12 animals. The dosing vehicle was 10% DMSO + 10% polyoxyethylene castor oil + 80% physiological saline solution. The oral gavage group was fasted for approximately 12 hours prior to dosing and allowed food 4 hours after administration. Water was not restricted during the experiment. Approximately 0.2 mL of blood was collected from the orbital sinus at the following time points: pre-dose and 5, 15, 30 minutes, 1, 2, 4, 6, 8, and 24 hours post-dose. Blood was collected into EP tubes containing EDTA-K2 as anticoagulant and placed on ice. Plasma was separated by centrifugation at 3500 rpm for 5 minutes at 4°C within 1 hour of blood collection. Plasma samples were stored at -20°C until analysis. […] Pharmacokinetic parameters were calculated using WinNonlin software.

Where [2] appears, read: male ICR mice, iv. 10mg/kg, read-out: Vss.
Where [3] appears, read: male ICR mice, iv. 10mg/kg, read-out: Vz.

For orientation: IC30 means the concentration needed for an effect of 30%. A lower IC30 goes with greater potency. In general, IC50 refers to the concentration that gives 50% inhibition. `CC#CCNc1cc(NC[C@H]2CCNC[C@@H]2O)nc2c(C(C)C)cnn12` [Compound 38]: the IC30 in the series with MDA-MB-468 is listed as 765.9 nM; in the series on Jurkat, 858.8 nM; with HCT-116, 391.3 nM; with HCC70, 968.8 nM. The molecule also returned a half-maximal inhibitory concentration (IC50) on CDK7/CycH/MAT1 of 18.9 nM.

On to `[2H]C([2H])(Nc1cc(NC[C@H]2CCNC[C@@H]2O)nc2c(C(C)C)cnn12)c1ccccc1` [Compound 8], for which the IC30 is on record as 350.4 nM in the series on MDA-MB-468, 329.4 nM with Jurkat and 231.7 nM in the series on HCT-116.

Consider `N#Cc1cnn2c(NCc3ccccc3)cc(NC[C@H]3CCNC[C@@H]3O)nc12` [Compound 22], for which the concentration for an effect of 30% (IC30) in the series with MDA-MB-468 came out at 2910.0 nM; in the series with Jurkat, 4087.0 nM; in the series with HCT-116, 3453.0 nM. The molecule further came in with a 50% inhibitory concentration (IC50) on CDK7/CycH/MAT1 of 4.31 nM.

The term AUC(0-t) denotes exposure summed from dosing to a finite time, without extrapolation to infinity. The term Cmax denotes the maximum level reached in the sampled fluid or tissue. A word on the MRT last: it is the average time that molecules of a dose stay in the body. By half-life is commonly meant how long it takes for the measured level to halve. A higher half-life goes with slow decline. The Tmax is the time at which the peak concentration occurs. A word on the bioavailability: it is the share of a dose that reaches the circulation, judged against a reference dose that is usually intravenous. On to `CC(C)c1cnn2c(NCc3ccccc3)cc(NC[C@H]3CCNC[C@@H]3O)nc12` [CT7001, reference compound], for which, in the series with MDA-MB-468, the IC30 is given as 602.2 nM. In series [1] (male ICR mice, iv. 10mg/kg), this molecule gave a Tlast of 8 H, an AUC(0-t) of 8120 ng·h/mL, a Cmax of 17400 ng/mL and an MRT last of 1.3 h. Further, in series [1] (male ICR mice, iv. 10mg/kg), the clearance came out at 20 mL/min/kg, the half-life was 1.5 h, the AUC(0-inf) was 8400 ng·h/mL and the concentration at 8 h came to 126 ng/mL. Also, in series [1] (male ICR mice, po. 10mg/kg), the Tlast came out at 8 h, the Vz turned out to be 55.15 L/kg, the AUC(0-t) came to 541 ng·h/mL and the peak concentration (Cmax) is 99 ng/mL. Besides, in series [1] (male ICR mice, po. 10mg/kg), the mean residence time MRT last was found to be 3.6 h, the time of peak concentration (Tmax) turned out to be 2 h, the half-life was 2.5 h and the AUC(0-inf) was 653 ng·h/mL. For the same molecule, in series [1] (male ICR mice, po. 10mg/kg), the bioavailability amounted to 7.8% and the concentration at 8 h worked out at 31 ng/mL. Besides, the Vd in series [1] (male, ICR, iv. 10mg/kg, read-out: Vss) stood at 1.91 L/kg. Further, the Vd in series [1] (male, ICR, iv. 10mg/kg, read-out: Vz) was determined as 2.62 L/kg. Besides, in the series on Jurkat, the IC30 came to 473.3 nM. This molecule came in with a 30% effect concentration (IC30) with HCT-116 of 463.7 nM. In the series with HCC70, this molecule yielded a concentration for an effect of 30% (IC30) of 518.9 nM.

For `CC(C)c1cnn2c(NCC3CC3)cc(NC[C@H]3CCNC[C@@H]3O)nc12` [Compound 45], the 30% effect concentration (IC30) with MDA-MB-468 stood at 851.8 nM; with Jurkat it was 1126 nM; in the series on HCT-116, 429.4 nM; in the series with HCC70 it was 596.4 nM. On CDK7/CycH/MAT1, this molecule showed an IC50 of 21.2 nM.

In the case of `C=CCNc1cc(NC[C@H]2CCNC[C@@H]2O)nc2c(C(C)C)cnn12` [Compound 41], in series [1] (male ICR mice, iv. 10mg/kg), the Clast is recorded as 19 ng/mL, the Tlast was determined as 8 H, the Vss result was “higher steady-state apparent volume of distribution” and the area under the curve AUC(0-t) came out at 2960 ng·h/mL. In series [1] (male ICR mice, iv. 10mg/kg), this molecule had a Cmax of 4360 ng/mL, an MRT last of 1.1 h, a clearance of 55 mL/min/kg and a half-life of 2.3 h. In series [1] (male ICR mice, iv. 10mg/kg), the AUC(0-inf) was found to be 3020 ng·h/mL. In series [1] (male ICR mice, po. 10mg/kg), the “Bioavailability (F)” value is listed as “better oral bioavailability”, the Clast stood at 8 ng/mL, the Tlast was found to be 8 h and the AUC(0-t) came out at 445 ng·h/mL. Also, in series [1] (male ICR mice, po. 10mg/kg), the Cmax was 150 ng/mL, the mean residence time (MRT last) amounted to 2.5 h, the Tmax was determined as 2 h and the half-life is 1.5 h. Besides, in series [1] (male ICR mice, po. 10mg/kg), the AUC(0-inf) was 462 ng·h/mL and the bioavailability was 15%. The Vd in series [1] (setting [2]) turned out to be 4.22 L/kg. Also, in series [1] (setting [3]), the Vd was found to be 10.9 L/kg. Further, inhibition on CDK7/CycH/MAT1 was half-maximal at 6.3 nM (IC50).

`C#CCNc1cc(NC[C@H]2CCNC[C@@H]2O)nc2c(C(C)C)cnn12` [Compound 33] yielded an IC30 with MDA-MB-468 of 1101 nM. In series [1] (male ICR mice, iv. 10mg/kg), the Clast is 6 ng/mL, the T1/2 entry is “longer half-life”, the Tlast is 24 H and the Vss result is recorded as “higher steady-state apparent volume of distribution”. In addition, in series [1] (male ICR mice, iv. 10mg/kg), the AUC(0-t) worked out at 1510 ng·h/mL, the peak concentration (Cmax) stood at 990 ng/mL, the MRT last was found to be 2.4 h and the clearance came to 104 mL/min/kg. For the same molecule, in series [1] (male ICR mice, iv. 10mg/kg), the half-life was 10 h and the AUC(0-inf) amounted to 1600 ng·h/mL. Further, in series [1] (male ICR mice, po. 10mg/kg), the Clast stood at 5 ng/mL, the Tlast was 6 h, the AUC(0-t) came out at 65 ng·h/mL and the peak level (Cmax) was 26 ng/mL. Also, in series [1] (male ICR mice, po. 10mg/kg), the mean residence time (MRT last) worked out at 2.4 h, the Tmax stood at 0.5 h, the half-life is 2.9 h and the AUC(0-inf) turned out to be 88 ng·h/mL. The bioavailability in series [1] (male ICR mice, po. 10mg/kg) stood at 5.5%. Also, the Vd in series [1] (setting [2]) stood at 27.8 L/kg. Also, the Vd in series [1] (setting [3]) was determined as 90 L/kg. The same molecule returned an IC30 in the series on Jurkat of 200.8 nM. The molecule further showed a 30% effect concentration (IC30) in the series with HCT-116 of 788.3 nM. The same molecule registered a concentration for an effect of 30% (IC30) with HCC70 of 501.9 nM. This molecule also showed an IC50 against CDK7/CycH/MAT1 of 2.7 nM.
